Measurements from patent publication US20210077492A1, “METHODS AND COMPOSITIONS OF TREATING PANCREATIC CANCER” (The Trustees of Indiana University, priority 2019, published 2021).

How the values were obtained:
[1] = test system: primary PDAC cell line ASPC1; test: Morphological analysis by giemsa staining for induction of differentiation; type: cell-based, human; settings: DT1 at 0.5-2 μM
Description: (§1) Referring now to FIG. 23, primary PDAC cells were incubated with 2 μM of DT1 and 1 uM of THU for 96 hrs. RNA was isolated and gene expression pancreas differentiation factors were analyzed in ASPC1 and BXPC3 cells. Referring now to FIG. 24, primary PDAC cell line ASPC1 was treated with 1 μM of THU, 2 μM of DT1, and 1 μM of DAC, or the combination of 0.5 μM of DT1 plus 0.2 μM of DAC, or 1 μM of THU and 0.5 μM of DT1 plus 0.2 μM of DAC. Morphological analysis was performed using a giemsa staining method to determine induction of differentiation (enlargement of cytoplasm and reduction of nuclear compartments). Black bar=200× magnification. Referring now to FIG. 25, primary PDAC cell line ASPC1 was treated with 100 nM of ATRA and 1 μM of DAC, or combination of 100 nM of ATRA plus 200 nM of DAC. Morphological analysis was performed using a giemsa staining method to determine induction of differentiation (enlargement of cytoplasm and reduction of nuclear compartments). Black bar=200× magnification. Referring now to FIG. 26, pancreatic cancer cell line ASPC1 was treated with DMSO as control, 1 μM of THU, and varying DT1 concentrations. DNA (100 ng) was isolated at 96 hours post transfection and was used to quantify global 5-methyla-cytosine (5-mC) methylation using LINE1 global DNA methylation kit (ACTIVE MOTIF). […]

[2] = test system: pancreatic cancer cell line ASPC1; test: LINE1 global 5-methyl-cytosine DNA methylation assay in treated or transfected cells; type: cell-based, human; settings: concentration not given
Description: DNA Methylation of normal pancreas and PDAC tumor samples was analyzed using data available through the MethHC database (http://methhc.mbc.nctu.edu.tw/php/index.php) using the PAAD dataset. Methylation analysis was performed at transcriptional start sites (TSS), promoters, and CpG island. For global DNA methylation changes, cells were transfected with shRNA against human UHRF1 (Dharmacon Horizon, catalog V3SH7590-225743149) for 96 hours or treated with THU (1 μM) DT1 (0.5-15 μM) or 5-aza-cytidine (1 μM). DNA was isolated using the Clonetech NucleoSpin DNA rapid lyse kit (catalog 740110.1) following manufacture's recommended conditions. 100 ng of isolated DNA was used to quantify DNA methylation using the 5mC-Long Interspersed Nucleotide Element 1 (LINE-1) kit from Active Motif (catalog number 55017) following the manufacture's recommendations. A Colorimetric ELISA readout was measured on a BioTek synhergy HI reader at 450 nm.
Referring now to FIG. 17, pancreatic cancer cell line ASPC1 was transfected with shRNA against UHRF1. DNA (100 ng) was isolated from shUFRF1 and scramble transfected cells at 96 hours post transfection and was used for quantification of global 5-methyl-cytosine methylation using LINE1 global DNA methylation kit (ACTIVE MOTIF).
Referring now to FIG. 23, primary PDAC cells were incubated with 2 μM of DT1 and 1 uM of THU for 96 hrs. […]

[3] = test system: PDAC cell lines ASPC1, MiaPaCa-2, BXPC3; test: Cell proliferation of PDAC cell lines by automated IncuCyte incubator; type: cell-based, human
Description: A panel of pancreatic cancer cell lines (PCCs) was ordered from ATCC (https://www.atcc.org). Cells were cultured in RPMI media supplemented with 10% FBS and 1% penicillin streptomycin (100 units/ml of penicillin and […] of streptomycin) in a 37° C. incubator with 5% Carbon dioxide (CO2). All cell lines were confirmed to be mycoplasma-free using a Mycoalert detection kit (Lonza Allendale N.J., catalog #LT07-218) as per manufacturer's protocol. For DT1, DAC, and THU treatments, 1000 cells were plated in a 96 well plate overnight. Cells were treated three times at 24, 48, and 72 hours post-plating using concentrations of 0.2-2 μM of DT1 and DAC and 1-2 μM of THU independently or in combination. DMSO was used as a vehicle control. Cell proliferation was measured in a 37° C., Incucyte incubator (IncuCyte™ live-cell, Essen biosciences, Michigan USA) with 5% CO2 for automated live cell proliferation in real time, and images were taken every 6 hours for up to 160 hours. Cells were also counted on a Beckman coulter automated cell counter. Referring now to FIG. 27, primary PDAC cell line ASPC1 was incubated with 2 μM DT1 to inhibit UHRF1 and/or DNMT1 inhibitor DAC or CDA inhibitor THU (1 μM) or […], 0.2 μM DAC and THU (1 μM). Cell proliferation was quantified by automated IncuCyte incubator for 160 hours. […] Referring now to FIG. 28, primary PDAC cell line MiaPaCa-2 was incubated with 2 μM DT1 to inhibit UHRF1 and/or DNMT1 inhibitor DAC or CDA inhibitor THU (1 μM) or […], 0.2 μM DAC, and THU (1 μM). Cell proliferation was quantified by automated IncuCyte incubator for 160 hours. […] Referring now to FIG. 29, primary PDAC cell line BXPC3 was incubated with 2 μM DT1 to inhibit UHRF1 and/or DNMT1 inhibitor DAC or CDA inhibitor THU (1 μM) or […], 0.2 μM DAC, and THU (1 μM). Cell proliferation was quantified by automated IncuCyte incubator for 160 hours. […] Decitabine (DAC) is a clinically available drug that degrades DNMT1 to decrease DNA methylation while DT1 targets UHRF1.

[4] = test system: ASPC1 and BXPC3 cells; test: Gene expression of pancreas differentiation factors by qPCR; type: cell-based, human; settings: DT1 at 0.5-2 μM
Description: Gene expression analysis by real time quantitative polymerase chain reaction (qRT-PCR) was performed using standard methods. Gene expression of target genes was performed using either SYBR green methods or Power Green ROX dye master mix (Applied Biosystems, Foster city CA, USA Lot number 1610538). Assays were performed with an Applied Biosytems ViiA7 (Life Technologies).
as §1, with “Morphological analysis was performed using a giemsa staining method to determine induction of differentiation (enlargement of cytoplasm and reduction of nuclear compartments). Black bar=200× magnification. Referring now to FIG. 26, pancreatic cancer cell line ASPC1 was treated with DMSO as control, 1 μM of THU, and varying DT1 concentrations.” left out

[5] = test system: orthotopic xenografts of PDAC with AsPC-1 cells; test: Orthotopic PDAC xenograft model, tumor growth kinetics; type: in vivo; settings: THU 10 mg/kg three times weekly, 35 days
Description: Orthotopic mouse models with human PDAC cells were generated using NOD/SCID mice. In vivo BLI was conducted on a NiteOwl system and acquisition software. Data were analyzed using eLumenate analysis software. For the primary tumor, signal intensity was quantified as the sum of all detected photon counts within a region of interest selected by an automated maximum entropy method and normalized to the area of that region of interest. For the metastatic region, a region of interest was drawn manually in a “crescent” shape which encompassed all of the abdominal region except the primary tumor and maintained a boundary at least 2 mm away from the ROI for the primary. The signal in the metastatic region was again quantified by dividing the sum of all detected photon counts in the region by the area of the region.
Referring to FIG. 30, bioluminescent and primary PDAC cell lines ASPC1 and MiPaCa-2 were used to generate PDAC xenografts for therapeutic validation. At 22 days post injection of tumor cells, tumor growth and metastatic dissemination are detected in this orthotopic models in NOD/SCID mice. Referring to FIG. 31, orthotopic xenografts of PDAC with AsPC-1 cells were treated with vehicle control, Tetrahydrouridine (THU, 10 mg/kg), Decitabine (DAC, 0.2 mg/kg), or combination of THU (10 mg/kg) with DAC (0.1 mg/kg) three times weekly. […]

Q: What does the source list for `C/C(=N\O)c1c[nH]c(=O)[nH]c1=O` [DT1]?
A: differentiation-based morphological changes [1]: induced differentiation-based morphological changes; global DNA methylation [2]: decreased global DNA methylation; concentration range at which DT1 activity was observed [3]: micromolar range; PDAC proliferation ([3]; DT1 at 0.5-2 μM): decreased PDAC proliferation; expression of pancreas differentiation factors [4]: upregulated pancreas differentiation factors

Q: With `O=C1NC(O)CCN1[C@@H]1O[C@H](CO)[C@@H](O)[C@H]1O` (stereo partly shown) [THU, tetrahydrouridine, reference compound] as the molecule, how does the tumor growth kinetics [5] read?
A: did not affect tumor growth kinetics

Q: What about the PDAC proliferation ([3]; alone or in combination, methods: 0.2-2 μM of DT1 and DAC, 1-2 μM of THU) of the same molecule?
A: did not inhibit PDAC proliferation alone
